The source of these data is patent US20260345619A1 (Principia Biopharma Inc., priority 2023, published 2026).

The structures appear in SMILES notation.

The nature of test [1]: Asthma Daytime Symptom Diary (ADSD) score. The test is classed as in vivo, human. As to conditions: for LS mean difference versus placebo, ADSD symptom score: Week 12. The text has this: (§1) ADSD and ANSD are PRO measures developed by the PRO Consortium′ Asthma Working Group. Both instruments have been designed to measure asthma symptoms in adult and adolescent (12 years of age and older) patients diagnosed with mild to severe asthma. ADSD and ANSD assess asthma severity based on patient self-report of asthma core symptoms.
(§2) Other efficacy endpoints included: • Change from baseline in pre- and post-bronchodilator FEV1 and other lung function measurement (peak expiratory flow (PEF), forced vital capacity (FVC), forced expiratory flow (FEF) 25-75%) at each spirometry endpoint. • Asthma Control Questionnaire-5 (ACQ-5) score change from baseline at EOT and at each assessment time point. • Asthma Quality of Life Questionnaire with Standardized Activities (AQLQ(S)) Self-Administered score change from baseline at EOT and at each assessment time point. • Change from baseline at EOT and change from baseline at each week for asthma symptom scores in the morning and evening (ADSD and ANSD). Questionnaire was to be administered daily and score averaged weekly for analysis. • Change from baseline at EOT and change from baseline at each week in number of inhalations/day of albuterol or levalbuterol for symptom relief.
(§3) The ADSD and ANSD are PRO measures developed by the PRO Consortium′ Asthma Working Group. Both instruments have been designed to measure asthma symptoms in adult and adolescent (12 years of age and older) patients diagnosed with mild to severe asthma. ADSD and ANSD assess asthma severity based on patient self-report of asthma core symptoms, i.e., difficulty of breathing; wheezing; shortness of breath; chest tightness; chest pain; and cough. Patients were asked to complete the ADSD every night before they went to bed, thinking about their asthma symptoms on that day, from when they got up this morning until then; the ANSD when getting up, thinking about their asthma symptoms from the previous night from when they went to bed until then.
(§4) Both the ADSD and ANSD are composed of 6 items rated using an 11-point NRS that ranges from 0=None to 10=As bad as you can imagine (Gater et al. 2016). The participants were to record their daytime and nighttime asthma symptoms in an electronic diary, once in the evening and once in the morning, respectively. The participants were to complete the ADSD and the ANSD.

A short description of test [2]: Asthma Nighttime Symptom Diary (ANSD) score. The test is classed as in vivo, human. As to conditions: for LS mean difference versus placebo, ANSD symptom score: Week 12.
Text: as §1, §2, §3, §4

Setting [3] is: both cohorts, Week 12, all components.

Turning to `CC(C)(C=C(C#N)C(=O)N1CCC[C@@H](n2nc(-c3ccc(Oc4ccccc4)cc3F)c3c(N)ncnc32)C1)N1CCN(C2COC2)CC1` (mixture of isomers) [rilzabrutinib, (R)-2-[3-[4-amino-3-(2-fluoro-4-phenoxy-phenyl)pyrazolo[3,4-d]pyrimidin-1-yl]piperidine-1-carbonyl]-4-methyl-4-[4-(oxetan-3-yl)piperazin-1-yl]pent-2-enenitrile], the figures for the “LS mean ADSD change from baseline at Week 12” value in test [1] (400 mg BID) and in test [1] (400 mg TID) were −0.27 and −0.43, respectively. Moreover, the “LS mean difference versus placebo, ADSD symptom score” value is reported as −0.39 in test [1] (400 mg BID, 95% CI −1.03, 0.26, nominal p=0.2377) and −0.50 in test [1] (400 mg TID, 95% CI −1.15, 0.14, nominal p=0.1276). Moreover, the “ADSD symptom score (in words)” value in test [1] (setting [3]) was “improvement in ADSD and ANSD symptom score”. For the same compound, the “LS mean ANSD change from baseline at Week 12” value is −0.35 in test [2] (400 mg BID) and −0.48 in test [2] (400 mg TID). For the same compound, the “LS mean difference versus placebo, ANSD symptom score” value in test [2] (400 mg BID, 95% CI −1.33, −0.03, nominal p=0.0390) was −0.68; in test [2] (400 mg TID, 95% CI −1.13, 0.06, nominal p=0.0758) it was −0.54. Besides, the “ANSD symptom score (in words)” value in test [2] (setting [3]) was “improvement in ADSD and ANSD symptom score”.
